Results: PubChem BioAssay AID248 (DTP/NCI, 2004)
“And” between values parts separate entries of the source, which are not always exact repeats. Equal values may be shown once. Toxic doses and inconclusive results are not listed. No stated cut-off is given here; in the data, active means T/C of 150% or more; inactive means T/C below 125%.

Test system: L1210 leukemia ip in BDF1 mice, survival T/C
Test: NCI In Vivo Anticancer Drug Screen. Data for tumor model L1210 Leukemia (intraperitoneal) in B6D2F1 (BDF1) mice
Conditions: endpoint: mean survival time, higher = longer survival
Procedure, shortened: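 Tumor was transplanted into mice, which were then dosed with test compound or vehicle alone. Survival was recorded for each group, and the treated figure was expressed relative to the control figure.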

[1] = dose: 100.0 mg/kg/injection, schedule: Q01DX001 (ip), vehicle: saline with Tween-80
[2] = dose: 200.0 mg/kg/injection, schedule: Q01DX001 (ip), vehicle: saline with Tween-80
[3] = dose: 100.0 mg/kg/injection, schedule: Q04DX003 (ip), vehicle: saline with Tween-80
[4] = dose: 200.0 mg/kg/injection, schedule: Q04DX003 (ip), vehicle: saline with Tween-80
[5] = dose: 400.0 mg/kg/injection, schedule: Q04DX003 (ip), vehicle: saline with Tween-80
[6] = dose: 100.0 mg/kg/injection, schedule: Q01DX001 (ip), vehicle: carboxymethylcellulose (CMC)
[7] = dose: 200.0 mg/kg/injection, schedule: Q01DX001 (ip), vehicle: carboxymethylcellulose (CMC)
[8] = dose: 400.0 mg/kg/injection, schedule: Q01DX001 (ip), vehicle: carboxymethylcellulose (CMC)

Measured: T/C

CO/N=C1\CC(C)N2C(=O)C(C(C)C)NC(=O)C(NC(=O)c3c4nc5c(C(=O)NC6C(=O)NC(C(C)C)C(=O)N7C(C)CC(O)C7C(=O)N(C)CC(=O)N(C)C(C(C)C)C(=O)OC6C)ccc(C)c5oc-4c(C)c(=O)c3N)C(CO)OC(=O)C(C)N(C)C(=O)CN(C)C(=O)C12 (configuration not stated)
inactive: dose: 0.1 mg/kg/injection, schedule: Q01DX009 (ip), vehicle: saline + alcohol 96 % of control | dose: 0.2 mg/kg/injection, schedule: Q01DX009 (ip), vehicle: saline + alcohol 102 % of control | dose: 0.3 mg/kg/injection, schedule: Q04DX003 (ip), vehicle: saline + alcohol 96 % of control | dose: 0.4 mg/kg/injection, schedule: Q01DX009 (ip), vehicle: saline + alcohol 97 % of control | dose: 0.6 mg/kg/injection, schedule: Q04DX003 (ip), vehicle: saline + alcohol 107 % of control | dose: 0.8 mg/kg/injection, schedule: Q01DX001 (ip), vehicle: saline + alcohol 97 % of control | dose: 0.8 mg/kg/injection, schedule: Q01DX009 (ip), vehicle: saline + alcohol 111 % of control | dose: 1.2 mg/kg/injection, schedule: Q04DX003 (ip), vehicle: saline + alcohol 97 % of control | dose: 1.6 mg/kg/injection, schedule: Q01DX001 (ip), vehicle: saline + alcohol 103 % of control | dose: 1.6 mg/kg/injection, schedule: Q01DX009 (ip), vehicle: saline + alcohol 100 % of control | dose: 2.4 mg/kg/injection, schedule: Q04DX003 (ip), vehicle: saline + alcohol 112 % of control | dose: 3.2 mg/kg/injection, schedule: Q01DX001 (ip), vehicle: saline + alcohol 110 % of control | dose: 4.8 mg/kg/injection, schedule: Q04DX003 (ip), vehicle: saline + alcohol 110 % of control | dose: 6.4 mg/kg/injection, schedule: Q01DX001 (ip), vehicle: saline + alcohol 106 % of control | dose: 12.8 mg/kg/injection, schedule: Q01DX001 (ip), vehicle: saline + alcohol 101 % of control

CC12CCc3oc(-c4ccccc4)cc3C1=CCCC2=O (configuration not stated)
inactive: [1] 102 % of control | [2] 94 % of control | dose: 400.0 mg/kg/injection, schedule: Q01DX001 (ip), vehicle: saline with Tween-80 96 % of control

CC1(C)CCC2CC(=O)OC2(C)C1 (configuration not stated)
inactive: dose: 100.0 mg/kg/injection, schedule: Q01DX001 (ip), vehicle: saline 109 % of control | dose: 100.0 mg/kg/injection, schedule: Q01DX009 (ip), vehicle: saline 100 % of control | dose: 200.0 mg/kg/injection, schedule: Q01DX001 (ip), vehicle: saline 95 % of control | dose: 200.0 mg/kg/injection, schedule: Q01DX009 (ip), vehicle: saline 94 % of control | dose: 400.0 mg/kg/injection, schedule: Q01DX001 (ip), vehicle: saline 92 % of control | dose: 400.0 mg/kg/injection, schedule: Q01DX009 (ip), vehicle: saline 98 % of control

CC(C)OC(=O)Nc1cccc(Cl)c1
inactive: dose: 50.0 mg/kg/injection, schedule: Q01DX009 (ip), vehicle: saline sonified 100 % of control | dose: 100.0 mg/kg/injection, schedule: Q01DX009 (ip), vehicle: saline sonified 101 % of control | dose: 100.0 mg/kg/injection, schedule: Q04DX003 (ip), vehicle: saline sonified 87 % of control | dose: 200.0 mg/kg/injection, schedule: Q01DX009 (ip), vehicle: saline sonified 99 % of control | dose: 200.0 mg/kg/injection, schedule: Q04DX003 (ip), vehicle: saline sonified 94 % of control | dose: 400.0 mg/kg/injection, schedule: Q04DX003 (ip), vehicle: saline sonified 94 % of control

C[CH2][Pb]([CH2]C)([CH2]C)[S]c1ccc(Cl)cc1
inactive: dose: 25.0 mg/kg/injection, schedule: Q04DX002 (sc), vehicle: olive oil, sesame oil, peanut oil 110 % of control | dose: 50.0 mg/kg/injection, schedule: Q04DX002 (sc), vehicle: olive oil, sesame oil, peanut oil 87 % of control

CC(=O)c1ccc(NC(N)=S)cc1
inactive: dose: 5.0 mg/kg/injection, schedule: Q01DX009 (ip), vehicle: saline with Tween-80 88 % of control | dose: 10.0 mg/kg/injection, schedule: Q01DX009 (ip), vehicle: saline with Tween-80 98 % of control | dose: 20.0 mg/kg/injection, schedule: Q01DX009 (ip), vehicle: saline with Tween-80 103 % of control and 90 % of control | dose: 40.0 mg/kg/injection, schedule: Q01DX009 (ip), vehicle: saline with Tween-80 97 % of control and 104 % of control | dose: 80.0 mg/kg/injection, schedule: Q01DX009 (ip), vehicle: saline with Tween-80 91 % of control

CCOC(=O)C(C#N)=C1CC(C)OC(C)C1 (configuration not stated)
inactive: [3] 100 % of control | [4] 97 % of control | [5] 103 % of control

CCc1c(Cl)nc(N)nc1Cl
inactive: dose: 100.0 mg/kg/injection, schedule: Q01DX Z (ip), vehicle: methylcellulose (MC) 95 % of control | dose: 200.0 mg/kg/injection, schedule: Q01DX Z (ip), vehicle: methylcellulose (MC) 89 % of control

CCSc1ncnc2c1nnn2C1OC(CO)C(O)C1O (configuration not stated)
inactive: dose: 12.5 mg/kg/injection, schedule: Q01DX001 (ip), vehicle: saline with Tween-80 100 % of control | dose: 25.0 mg/kg/injection, schedule: Q01DX001 (ip), vehicle: saline with Tween-80 102 % of control | dose: 50.0 mg/kg/injection, schedule: Q01DX001 (ip), vehicle: saline with Tween-80 97 % of control | [1] 103 % of control | [2] 108 % of control

CC(C)(C)c1nc2ccc([N+](=O)[O-])cc2[nH]1
inactive: dose: 38.0 mg/kg/injection, schedule: Q01DX009 (ip), vehicle: other 104 % of control | dose: 75.0 mg/kg/injection, schedule: Q01DX001 (ip), vehicle: other 92 % of control | dose: 75.0 mg/kg/injection, schedule: Q04DX003 (ip), vehicle: other 92 % of control | dose: 150.0 mg/kg/injection, schedule: Q01DX001 (ip), vehicle: other 91 % of control | dose: 150.0 mg/kg/injection, schedule: Q04DX003 (ip), vehicle: other 92 % of control | dose: 300.0 mg/kg/injection, schedule: Q01DX001 (ip), vehicle: other 97 % of control

CC(C)(COCOCC(C)(C)[N+](=O)[O-])[N+](=O)[O-]
inactive: [3] 100 % of control | [4] 103 % of control | [5] 100 % of control

CN(C)c1ccc2c(c1)/C(=N/O)c1ccccc1-2
inactive: [6] 103 % of control | [7] 105 % of control | [8] 100 % of control

COc1ccc(CC(=O)N2CCc3cc(OC)c(OC)cc3C2O)cc1OC (configuration not stated)
inactive: dose: 100.0 mg/kg/injection, schedule: Q01DX009 (ip), vehicle: saline with Tween-80 96 % of control | [3] 100 % of control | dose: 200.0 mg/kg/injection, schedule: Q01DX009 (ip), vehicle: saline with Tween-80 91 % of control | [4] 103 % of control | dose: 400.0 mg/kg/injection, schedule: Q01DX009 (ip), vehicle: saline with Tween-80 88 % of control | [5] 102 % of control

OCCCc1cc(Br)ccc1O
inactive: dose: 50.0 mg/kg/injection, schedule: Q01DX001 (ip), vehicle: carboxymethylcellulose (CMC) 105 % of control | [6] 100 % of control | [7] 100 % of control | [8] 92 % of control

CC(=O)OCc1c(COC(C)=O)c(-c2ccc(Cl)cc2)n2c1CCC2
inactive: dose: 12.5 mg/kg/injection, schedule: Q01DX009 (ip), vehicle: Klucel (hydroxypropylcellulose) (HPC) 95 % of control | dose: 25.0 mg/kg/injection, schedule: Q01DX009 (ip), vehicle: Klucel (hydroxypropylcellulose) (HPC) 102 % of control | dose: 50.0 mg/kg/injection, schedule: Q01DX009 (ip), vehicle: Klucel (hydroxypropylcellulose) (HPC) 117 % of control
